Consider 19 molecules from patent US12503438B2, “Compounds for the treatment of kinase-dependent disorders” (Exelixis, Inc., priority 2019, dated 2025).

The target in one assay is T1, AXL (Homo sapiens, UniProt P30530).
T1 construct: endogenous in cells; host or cells: A-172 glioblastoma cells (ATCC #CRL-1620)
T1 sequence (P30530 26-894): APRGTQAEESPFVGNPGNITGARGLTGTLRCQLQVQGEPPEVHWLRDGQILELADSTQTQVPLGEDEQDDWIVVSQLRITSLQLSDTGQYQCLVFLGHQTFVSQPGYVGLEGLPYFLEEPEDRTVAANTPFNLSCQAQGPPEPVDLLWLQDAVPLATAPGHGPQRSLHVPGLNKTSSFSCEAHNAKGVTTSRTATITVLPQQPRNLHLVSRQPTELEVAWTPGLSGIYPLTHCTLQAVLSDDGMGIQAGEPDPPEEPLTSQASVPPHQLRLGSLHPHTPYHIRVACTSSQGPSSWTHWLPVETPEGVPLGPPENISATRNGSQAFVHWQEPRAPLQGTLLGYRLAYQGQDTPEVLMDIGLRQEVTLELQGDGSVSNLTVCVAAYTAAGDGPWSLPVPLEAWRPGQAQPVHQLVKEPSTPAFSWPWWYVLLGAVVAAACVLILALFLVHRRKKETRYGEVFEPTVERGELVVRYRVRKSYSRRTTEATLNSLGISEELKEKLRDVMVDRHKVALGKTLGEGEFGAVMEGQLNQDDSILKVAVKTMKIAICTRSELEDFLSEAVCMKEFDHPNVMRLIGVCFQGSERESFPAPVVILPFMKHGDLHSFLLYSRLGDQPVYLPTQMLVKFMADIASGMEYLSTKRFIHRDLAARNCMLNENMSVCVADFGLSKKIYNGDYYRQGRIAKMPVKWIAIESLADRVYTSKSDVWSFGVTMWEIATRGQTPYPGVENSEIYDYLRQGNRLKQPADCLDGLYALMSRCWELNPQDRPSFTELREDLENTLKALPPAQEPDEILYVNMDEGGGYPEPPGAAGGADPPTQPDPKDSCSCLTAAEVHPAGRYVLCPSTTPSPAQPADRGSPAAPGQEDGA
In words: AXL autophosphorylation ELISA in A-172 cells. The note with it: cellular activity, Gas6-stimulated, phospho-AXL ELISA. Type of assay: cell-based. The essentials: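 Serum-starved (24 h) A-172 glioblastoma cells got an 8-point compound series (0.3% DMSO) for 1 h, then 1 μg/mL human Gas6 for 15 min. Lysate phospho-AXL quantified by ELISA against phospho-AXL standard, normalized to DMSO and reference-inhibitor controls; IC50 by 4-parameter logistic fit.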
On the technique in general: ELISA stands for enzyme-linked immunosorbent assay.

The target of the next assay is KDR (Homo sapiens, UniProt P35968). In words: Human KDR kinase assay (33P-phosphoryl transfer radiometric, KinaseProfiler). Set-up: Human KDR (residues K790-V1356, 55 nM); purchased Eurofins Pharma Discovery Services UK Limited (KinaseProfiler service). As to conditions: biochemical activity; 10 μM ATP. Here is the method: Kinase activity and compound inhibition were investigated using the ^33P-Phosphoryl transfer radiometric kinase assay, performed using the KinaseProfiler™ service of Eurofins Pharma Discovery Services UK Limited. Dose-response experiments were performed using nine compound concentrations in a 96-well microtiter plate. For each assay, all compounds were prepared to a 50× final assay concentration (50 μM) in 100% DMSO, then diluted in a half-log series, with the final top concentration at 1 μM. This working stock of the compound was added to the assay well as the first component in the reaction, followed by the remaining components as detailed in the following assay protocols below. The positive control wells (100% kinase activity) contain all components of the reaction including 2% DMSO (control for solvent effects), except the compound of interest. Blank wells contain all components of the reaction, with the reference inhibitor, staurosporine. This reference compound was used to abolish kinase activity and generated the 0% kinase activity base-line. IC50 values were calculated by nonlinear regression analysis using the sigmoidal dose-response (variable slope) curve fit on XLFit version 5.3 (ID Business Solutions).
Human KDR (residues K790-V1356, 55 nM) was incubated with 8 mM MOPS pH 7.0, 0.2 mM EDTA, 0.33 mg/mL myelin basic protein, 10 mM magnesium acetate, and 10 μM [γ-^33P-ATP]. The reaction was initiated by the addition of the Mg/ATP mix. After incubation for 40 minutes at room temperature, the reaction was stopped by the addition of phosphoric acid to a concentration of 0.5%. A reaction aliquot of 10 μL was then spotted onto a P30 filtermat and washed four times for 4 minutes in 0.425% phosphoric acid and once in methanol prior to drying and scintillation counting. Incorporated ^33P was measured using the Wallac Microbeta scintillation counter (Perkin Elmer).

Broadly, the IC50 is the concentration at which inhibition is half-maximal. Lower therefore signals greater potency.

Chain of KDR (P35968 790-1356): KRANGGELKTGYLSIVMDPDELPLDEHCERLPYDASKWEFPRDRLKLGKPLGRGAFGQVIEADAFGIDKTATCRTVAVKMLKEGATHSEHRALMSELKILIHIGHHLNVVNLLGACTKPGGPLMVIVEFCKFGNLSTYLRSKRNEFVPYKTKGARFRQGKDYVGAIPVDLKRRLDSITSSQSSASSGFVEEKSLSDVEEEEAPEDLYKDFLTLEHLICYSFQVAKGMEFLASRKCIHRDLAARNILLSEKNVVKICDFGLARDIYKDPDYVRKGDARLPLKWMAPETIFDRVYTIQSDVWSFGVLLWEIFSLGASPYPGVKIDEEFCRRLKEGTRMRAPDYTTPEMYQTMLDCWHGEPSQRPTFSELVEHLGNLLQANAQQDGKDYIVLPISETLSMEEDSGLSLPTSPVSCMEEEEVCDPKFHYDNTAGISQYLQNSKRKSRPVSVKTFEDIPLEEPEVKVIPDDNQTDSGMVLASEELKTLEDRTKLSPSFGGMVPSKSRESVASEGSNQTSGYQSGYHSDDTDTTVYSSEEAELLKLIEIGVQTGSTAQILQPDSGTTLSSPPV

Turning to `O=C(Nc1ccc(F)cc1)C1(C(=O)Nc2ccc(Oc3ccnc4cc(-c5cncnc5)ccc34)cc2)CC1` [Compound 27, 1-N′-(4-Fluorophenyl)-1-N-[4-(7-pyrimidin-5-ylquinolin-4-yl)oxyphenyl]cyclopropane-1,1-dicarboxamide], the IC50 against AXL is 10 to 100 nM; on KDR, no more than 10 nM.
On to `O=C(Nc1ccc(F)cc1)C1(C(=O)Nc2ccc(Oc3ccnc4cc(-c5cnn(C6CC6)c5)ccc34)cc2)CC1` [Compound 22, 1-N-[4-[7-(1-Cyclopropylpyrazol-4-yl)quinolin-4-yl]oxyphenyl]-1-N′-(4-fluorophenyl)cyclopropane-1,1-dicarboxamide], for which the IC50 at AXL and against KDR was 10 to 100 nM each time.
As for `O=C(Nc1ccc(F)cc1)C1(C(=O)Nc2ccc(Oc3ccnc4cc(-c5cnn(CCN6CCOCC6)c5)ccc34)cc2)CC1` [Compound 19, 1-N′-(4-Fluorophenyl)-1-N-[4-[7-[1-(2-morpholin-4-ylethyl)pyrazol-4-yl]quinolin-4-yl]oxyphenyl]cyclopropane-1,1-dicarboxamide], the values for the IC50 against AXL and on KDR were no more than 10 nM and 10 to 100 nM, respectively.
As for `C[Si](C)(C)C#Cc1ccc2c(Oc3ccc(NC(=O)C4(C(=O)Nc5ccc(F)cc5)CC4)cc3)ccnc2c1` [Compound 63, 1-N′-(4-Fluorophenyl)-1-N-[4-[7-(2-trimethylsilylethynyl)quinolin-4-yl]oxyphenyl]cyclopropane-1,1-dicarboxamide], the half-maximal inhibitory concentration (IC50) on AXL was greater than 300 nM; on KDR, 100 to 1000 nM.
Regarding `O=C(Nc1ccc(F)cc1)C1(C(=O)Nc2ccc(Oc3ccnc4cc(-c5cnn(CCO)c5)ccc34)cc2)CC1` [Compound 18, 1-N′-(4-Fluorophenyl)-1-N-[4-[7-[1-(2-hydroxyethyl)pyrazol-4-yl]quinolin-4-yl]oxyphenyl]cyclopropane-1,1-dicarboxamide], the IC50 against AXL and against KDR was no more than 10 nM in each case.
`O=C(Nc1ccc(F)cc1)C1(C(=O)Nc2ccc(Oc3ccnc4cc(-c5cccnc5)ccc34)cc2)CC1` [Compound 25, 1-N′-(4-Fluorophenyl)-1-N-[4-(7-pyridin-3-ylquinolin-4-yl)oxyphenyl]cyclopropane-1,1-dicarboxamide]: the IC50 at AXL and against KDR was 10 to 100 nM throughout.
For the molecule `O=C(Nc1ccc(F)cc1)C1(C(=O)Nc2ccc(Oc3ccnc4cc(-c5ccnnc5)ccc34)cc2)CC1` [Compound 28, 1-N′-(4-Fluorophenyl)-1-N-[4-(7-pyridazin-4-ylquinolin-4-yl)oxyphenyl]cyclopropane-1,1-dicarboxamide], the IC50 against AXL was no more than 10 nM; against KDR, 10 to 100 nM.
On to `O=C(Nc1ccc(F)cc1)C1(C(=O)Nc2ccc(Oc3ccnc4cc(-c5cnoc5)ccc34)cc2)CC1` [Compound 57, 1-N′-(4-Fluorophenyl)-1-N-[4-[7-(1,2-oxazol-4-yl)quinolin-4-yl]oxyphenyl]cyclopropane-1,1-dicarboxamide], for which the IC50 against AXL is no more than 10 nM; at KDR, 10 to 100 nM.
Consider `CN(C(=O)C1(C(=O)Nc2ccc(Oc3ccnc4cc(-c5cnn(C)c5)ccc34)cc2)CC1)c1ccc(F)cc1` [Compound 82A, 1-N′-(4-Fluorophenyl)-1-N′-methyl-1-N-[4-[7-(1-methylpyrazol-4-yl)quinolin-4-yl]oxyphenyl]cyclopropane-1,1-dicarboxamide], for which the values for the IC50 against AXL and on KDR were greater than 300 nM and 100 to 1000 nM, respectively.
Take `O=C(Nc1ccc(F)cc1)C1(C(=O)Nc2ccc(Oc3ccnc4cc(-c5cn[nH]c5)ccc34)cc2)CC1` [Compound 67, 1-N′-(4-Fluorophenyl)-1-N-[4-[7-(1H-pyrazol-4-yl)quinolin-4-yl]oxyphenyl]cyclopropane-1,1-dicarboxamide]: the half-maximal inhibitory concentration (IC50) against AXL was no more than 10 nM; against KDR, 10 to 100 nM.
`Cn1cc(-c2ccc3c(Oc4ccc(NC(=O)C5(C(=O)N6CCc7cc(F)ccc76)CC5)cc4)ccnc3c2)cn1` [Compound 81, 1-(5-Fluoro-2,3-dihydroindole-1-carbonyl)-N-[4-[7-(1-methylpyrazol-4-yl)quinolin-4-yl]oxyphenyl]cyclopropane-1-carboxamide]: the IC50 at AXL and at KDR was 10 to 100 nM each time.
In the case of `Cn1cnc(-c2ccc3c(Oc4ccc(NC(=O)C5(C(=O)Nc6ccc(F)cc6)CC5)cc4)ccnc3c2)c1` [Compound 69, 1-N′-(4-Fluorophenyl)-1-N-[4-[7-(1-methylimidazol-4-yl)quinolin-4-yl]oxyphenyl]cyclopropane-1,1-dicarboxamide], the 50% inhibitory concentration (IC50) is no more than 10 nM at AXL and 10 to 100 nM at KDR.
Turning to `O=C(Nc1ccc(F)cc1)C1(C(=O)Nc2ccc(Oc3ccnc4cc(-c5cnn[nH]5)ccc34)cc2)CC1` [Compound 65, 1-N′-(4-Fluorophenyl)-1-N-[4-[7-(1H-triazol-5-yl)quinolin-4-yl]oxyphenyl]cyclopropane-1,1-dicarboxamide], the half-maximal inhibitory concentration (IC50) is greater than 300 nM on AXL and 100 to 1000 nM at KDR.
Regarding `O=C(Nc1ccc(F)cc1)C1(C(=O)Nc2ccc(Oc3ccnc4cc(-c5ncc[nH]5)ccc34)cc2)CC1` [Compound 74, 1-N′-(4-Fluorophenyl)-1-N-[4-[7-(1H-imidazol-2-yl)quinolin-4-yl]oxyphenyl]cyclopropane-1,1-dicarboxamide], the IC50 against AXL and at KDR was 10 to 100 nM in each case.
Turning to `O=C(Nc1ccc(F)cc1)C1(C(=O)Nc2ccc(Oc3ccnc4cc(-c5cnn(C(F)(F)F)c5)ccc34)cc2)CC1` [Compound 12, 1-N′-(4-Fluorophenyl)-1-N-[4-[7-[1-(trifluoromethyl)pyrazol-4-yl]quinolin-4-yl]oxyphenyl]cyclopropane-1,1-dicarboxamide], the IC50 against AXL and on KDR was 10 to 100 nM in each case.
On to `O=C(Nc1ccc(F)cc1)C1(C(=O)Nc2ccc(Oc3ccnc4cc(-c5ncco5)ccc34)cc2)CC1` [Compound 66, 1-N′-(4-Fluorophenyl)-1-N-[4-[7-(1,3-oxazol-2-yl)quinolin-4-yl]oxyphenyl]cyclopropane-1,1-dicarboxamide], for which the IC50 against AXL and at KDR was 10 to 100 nM in each case.
With `O=C(Nc1ccc(F)cc1)C1(C(=O)Nc2ccc(Oc3ccnc4cc(-c5cnn(CC(F)(F)F)c5)ccc34)cc2)CC1` [Compound 16, 1-N′-(4-Fluorophenyl)-1-N-[4-[7-[1-(2,2,2-trifluoroethyl)pyrazol-4-yl]quinolin-4-yl]oxyphenyl]cyclopropane-1,1-dicarboxamide], the 50% inhibitory concentration (IC50) on AXL and against KDR was 10 to 100 nM in each case.
As for `O=C(Nc1ccc(F)cc1)C1(C(=O)Nc2ccc(Oc3ccnc4cc(-c5ccccn5)ccc34)cc2)CC1` [Compound 85, 1-N′-(4-Fluorophenyl)-1-N-[4-(7-pyridin-2-ylquinolin-4-yl)oxyphenyl]cyclopropane-1,1-dicarboxamide], the IC50 at AXL and at KDR was 10 to 100 nM each time.
Regarding `O=C(Nc1ccc(F)cc1)C1(C(=O)Nc2ccc(Oc3ccnc4cc(-c5cnc[nH]5)ccc34)cc2)CC1` [Compound 72, 1-N′-(4-Fluorophenyl)-1-N-[4-[7-(1H-imidazol-5-yl)quinolin-4-yl]oxyphenyl]cyclopropane-1,1-dicarboxamide], the half-maximal inhibitory concentration (IC50) against AXL and against KDR was 10 to 100 nM each time.
